Data from BindingDB's records for doi:10.1016/s0960-894x(02)00954-x (A.P.S. University, 2003).

Target: Carbonic anhydrase 2 (Homo sapiens, UniProt P00918)
Assay: Inhibition of human carbonic anhydrase II (CAII)

## NS(=O)(=O)c1cccc(N2C(=O)c3cccnc3C2=O)c1
  Ki: 400 nM
